Each block holds one compound with its values, some of them ahead of it. Calls of active or inactive are those of the source. The calls are words filed in the database; no cut-off is given here.
Legend:
[1] = target: T1, Voltage-dependent L-type calcium channel subunit alpha-1C (Cavia porcellus, UniProt O35505); test: Inhibition of Cav1.2 in guinea pig ventricular myocytes assessed as decrease in current amplitude at 2 Hz by patch clamp method; assay type: cell-based
[2] = Clearance in Sprague-Dawley rat; assay type: ADME; conditions: in vivo
Plasma = test: Terminal plasma concentration in TRPV4 knockout Balb/c mouse at 30 mg/kg, iv administered as infusion; assay type: ADME, organism-based; conditions: in vivo, read-out: Cp(T)
Rattus norvegicus = test: Dose normalized AUC in po dosed Sprague-Dawley rat; assay type: ADME, organism-based; conditions: in vivo
[3] = Oral bioavailability in Sprague-Dawley rat; assay type: ADME, organism-based; conditions: in vivo
Canis familiaris [4] = test: Toxicity in Beagle dog assessed as reduction in heart rate at 3 mg/kg, iv administered as infusion; assay type: organism-based, Canis lupus familiaris; conditions: in vivo
Canis familiaris [5] = test: Toxicity in Beagle dog assessed as QTc prolongation at 1 to 3 mg/kg, iv administered as infusion; assay type: organism-based, Canis lupus familiaris; conditions: in vivo
[6] = Cardiotoxicity in rabbit ventricular wedge; assay type: toxicity, Oryctolagus cuniculus
[7] = target: Transient receptor potential cation channel subfamily V member 4 (Homo sapiens, UniProt Q9HBA0); test: Antagonist activity at human TRPV4 expressed in HEK293 cells assessed as inhibition of GSK634775A-induced calcium influx preincubated for 10 mins followed by GSK634775A addition by […] dye based FLIPR assay; assay type: cell-based
Neuromedin-K receptor = Neuromedin-K receptor (Homo sapiens, UniProt P29371); test: Inhibition of NK3 receptor (unknown origin) by FLIPR assay
[8] = Cmax in Beagle dog at 3 mg/kg, iv administered as infusion; assay type: ADME, organism-based, Canis lupus familiaris; design: dose 3 mg/kg, route intravenous; conditions: in vivo
Canis familiaris [9] = test: Unbound plasma concentration in Beagle dog at 1 mg/kg, iv administered as infusion; conditions: in vivo
[10] = Cmax in Beagle dog at 1 mg/kg, iv administered as infusion; assay type: ADME, organism-based, Canis lupus familiaris; design: dose 1 mg/kg, route intravenous; conditions: in vivo
Mus musculus [11] = test: Toxicity in TRPV4 knockout Balb/c mouse assessed as reduction in heart rate at 30 mg/kg, iv administered as infusion; assay type: organism-based; conditions: in vivo
Canis familiaris [12] = test: Unbound plasma concentration in Beagle dog at 3 mg/kg, iv administered as infusion; conditions: in vivo
[13] = target: Voltage-dependent N-type calcium channel subunit alpha-1B (Homo sapiens) (UniProt Q00975); test: Inhibition of Cav2.2 (unknown origin)
[14] = target: Voltage-dependent T-type calcium channel subunit alpha-1H (Homo sapiens) (UniProt O95180); test: Inhibition of Cav3.2 (unknown origin)
Aorta = test: Toxicity in mouse isolated aorta assessed as effect on contractility; assay type: tissue-based; conditions: in vivo
Mus musculus [15] = test: Toxicity in TRPV4 knockout Balb/c mouse assessed as reduction in BP at 30 mg/kg, iv administered as infusion; assay type: organism-based; conditions: in vivo
Substance-K receptor = Substance-K receptor (Homo sapiens, UniProt P21452); test: Inhibition of NK2 receptor (unknown origin) by FLIPR assay
[16] = target: T1, Voltage-dependent L-type calcium channel subunit alpha-1C; test: Inhibition of Cav1.2 in guinea pig ventricular myocytes assessed as decrease in current amplitude at 0.1 Hz by patch clamp method; assay type: cell-based
[17] = Toxicity in mouse isolated right atria assessed as effect on contractility; design: species or system Right cardiac atrium; conditions: in vivo
[18] = target: Voltage-dependent L-type calcium channel subunit alpha-1C (Homo sapiens, UniProt Q13936); test: Inhibition of Cav1.2 (unknown origin) by patchXpress electrophysiology assay
Canis familiaris [19] = test: Toxicity in Beagle dog assessed as reduction in BP at 3 mg/kg, iv administered as infusion; assay type: organism-based, Canis lupus familiaris; conditions: in vivo
Canis familiaris [20] = test: Toxicity in Beagle dog assessed as effect on cardiac output at 3 mg/kg, iv administered as infusion; assay type: organism-based, Canis lupus familiaris; conditions: in vivo
[21] = target: Voltage-gated inwardly rectifying potassium channel KCNH2 (Homo sapiens, UniProt Q12809); test: Inhibition of human ERG by patchXpress electrophysiology assay
[22] = target: Sodium channel protein type 5 subunit alpha (Homo sapiens, UniProt Q14524); test: Inhibition of Nav1.5 (unknown origin) by ionworks quattro electrophysiology assay
[23] = target: T2, Transient receptor potential cation channel subfamily V member 4 (Rattus norvegicus, UniProt Q9ERZ8); test: Antagonist activity at rat TRPV4 expressed in HEK293 cells assessed as inhibition of GSK634775A-induced calcium influx preincubated for 10 mins followed by GSK634775A addition by […] dye based FLIPR assay; assay type: cell-based
Canis familiaris [24] = test: Toxicity in Beagle dog assessed as effect on LV function at 3 mg/kg, iv administered as infusion; assay type: organism-based, Canis lupus familiaris; conditions: in vivo
Canis familiaris [25] = test: Toxicity in Beagle dog assessed as hemodynamic effect at 1 mg/kg, iv administered as infusion; assay type: organism-based, Canis lupus familiaris; conditions: in vivo
[26] = target: Transient receptor potential cation channel subfamily V member 4 (Mus musculus, UniProt Q9EPK8); test: Antagonist activity at mouse TRPV4 expressed in HEK293 cells assessed as inhibition of 4alpha-PDD-induced intracellular calcium after 10 mins in presence of 45Ca2+ by microbeta liquid scintillation counting method; assay type: cell-based
[27] = target: T2, Transient receptor potential cation channel subfamily V member 4; test: Antagonist activity at rat TRPV4 expressed in HEK293 cells assessed as inhibition of 4alpha-PDD-induced intracellular calcium after 10 mins in presence of 45Ca2+ by microbeta liquid scintillation counting method; assay type: cell-based

Sequence of Transient receptor potential cation channel subfamily V member 4 (Homo sapiens, UniProt Q9HBA0) (Q9HBA0 whole entry): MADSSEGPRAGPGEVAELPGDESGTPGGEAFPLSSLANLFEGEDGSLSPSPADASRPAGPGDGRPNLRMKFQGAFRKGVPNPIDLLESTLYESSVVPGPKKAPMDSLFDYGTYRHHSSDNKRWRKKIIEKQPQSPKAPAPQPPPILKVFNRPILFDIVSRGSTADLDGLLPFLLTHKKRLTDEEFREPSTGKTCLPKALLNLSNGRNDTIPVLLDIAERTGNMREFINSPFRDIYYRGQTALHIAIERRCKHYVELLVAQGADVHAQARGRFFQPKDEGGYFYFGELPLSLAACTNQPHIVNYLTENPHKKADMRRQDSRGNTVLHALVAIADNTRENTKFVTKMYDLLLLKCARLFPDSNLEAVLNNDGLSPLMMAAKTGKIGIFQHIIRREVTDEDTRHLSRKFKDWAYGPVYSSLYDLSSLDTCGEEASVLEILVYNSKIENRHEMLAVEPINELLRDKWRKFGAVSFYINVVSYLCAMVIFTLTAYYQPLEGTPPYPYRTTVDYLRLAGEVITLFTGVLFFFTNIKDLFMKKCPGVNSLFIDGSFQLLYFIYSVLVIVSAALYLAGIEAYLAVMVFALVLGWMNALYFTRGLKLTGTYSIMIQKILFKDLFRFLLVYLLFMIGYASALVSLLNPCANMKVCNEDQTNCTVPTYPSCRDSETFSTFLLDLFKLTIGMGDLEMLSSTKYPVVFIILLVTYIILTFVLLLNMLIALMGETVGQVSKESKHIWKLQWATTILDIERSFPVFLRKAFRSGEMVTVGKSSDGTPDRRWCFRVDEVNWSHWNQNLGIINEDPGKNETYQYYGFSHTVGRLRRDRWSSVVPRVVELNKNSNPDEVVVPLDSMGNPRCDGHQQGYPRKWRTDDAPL
T2 sequence (Q9ERZ8 whole entry, the tested form may be a part): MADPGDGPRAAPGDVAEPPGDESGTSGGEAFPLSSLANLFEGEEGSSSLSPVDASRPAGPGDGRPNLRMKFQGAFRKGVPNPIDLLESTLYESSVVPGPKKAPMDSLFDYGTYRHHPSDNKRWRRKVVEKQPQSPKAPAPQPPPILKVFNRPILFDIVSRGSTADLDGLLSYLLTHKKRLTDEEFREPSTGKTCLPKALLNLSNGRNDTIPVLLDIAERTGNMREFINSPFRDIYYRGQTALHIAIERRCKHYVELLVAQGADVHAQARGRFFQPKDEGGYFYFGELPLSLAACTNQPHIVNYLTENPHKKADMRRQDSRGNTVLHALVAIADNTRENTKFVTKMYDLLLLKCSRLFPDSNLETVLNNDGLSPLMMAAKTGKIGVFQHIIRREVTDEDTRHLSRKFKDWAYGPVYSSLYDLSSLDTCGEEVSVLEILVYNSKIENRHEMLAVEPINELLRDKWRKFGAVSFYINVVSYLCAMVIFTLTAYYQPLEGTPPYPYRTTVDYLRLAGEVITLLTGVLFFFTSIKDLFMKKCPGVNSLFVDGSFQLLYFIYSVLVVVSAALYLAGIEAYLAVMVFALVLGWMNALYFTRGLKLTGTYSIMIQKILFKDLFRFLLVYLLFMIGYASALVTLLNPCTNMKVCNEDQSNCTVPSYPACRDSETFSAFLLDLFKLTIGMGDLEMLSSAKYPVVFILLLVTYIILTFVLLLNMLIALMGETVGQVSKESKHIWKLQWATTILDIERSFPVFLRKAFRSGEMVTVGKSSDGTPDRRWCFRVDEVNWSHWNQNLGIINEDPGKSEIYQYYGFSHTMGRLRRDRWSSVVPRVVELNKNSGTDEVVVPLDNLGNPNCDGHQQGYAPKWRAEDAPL
T1 sequence (O35505 whole entry): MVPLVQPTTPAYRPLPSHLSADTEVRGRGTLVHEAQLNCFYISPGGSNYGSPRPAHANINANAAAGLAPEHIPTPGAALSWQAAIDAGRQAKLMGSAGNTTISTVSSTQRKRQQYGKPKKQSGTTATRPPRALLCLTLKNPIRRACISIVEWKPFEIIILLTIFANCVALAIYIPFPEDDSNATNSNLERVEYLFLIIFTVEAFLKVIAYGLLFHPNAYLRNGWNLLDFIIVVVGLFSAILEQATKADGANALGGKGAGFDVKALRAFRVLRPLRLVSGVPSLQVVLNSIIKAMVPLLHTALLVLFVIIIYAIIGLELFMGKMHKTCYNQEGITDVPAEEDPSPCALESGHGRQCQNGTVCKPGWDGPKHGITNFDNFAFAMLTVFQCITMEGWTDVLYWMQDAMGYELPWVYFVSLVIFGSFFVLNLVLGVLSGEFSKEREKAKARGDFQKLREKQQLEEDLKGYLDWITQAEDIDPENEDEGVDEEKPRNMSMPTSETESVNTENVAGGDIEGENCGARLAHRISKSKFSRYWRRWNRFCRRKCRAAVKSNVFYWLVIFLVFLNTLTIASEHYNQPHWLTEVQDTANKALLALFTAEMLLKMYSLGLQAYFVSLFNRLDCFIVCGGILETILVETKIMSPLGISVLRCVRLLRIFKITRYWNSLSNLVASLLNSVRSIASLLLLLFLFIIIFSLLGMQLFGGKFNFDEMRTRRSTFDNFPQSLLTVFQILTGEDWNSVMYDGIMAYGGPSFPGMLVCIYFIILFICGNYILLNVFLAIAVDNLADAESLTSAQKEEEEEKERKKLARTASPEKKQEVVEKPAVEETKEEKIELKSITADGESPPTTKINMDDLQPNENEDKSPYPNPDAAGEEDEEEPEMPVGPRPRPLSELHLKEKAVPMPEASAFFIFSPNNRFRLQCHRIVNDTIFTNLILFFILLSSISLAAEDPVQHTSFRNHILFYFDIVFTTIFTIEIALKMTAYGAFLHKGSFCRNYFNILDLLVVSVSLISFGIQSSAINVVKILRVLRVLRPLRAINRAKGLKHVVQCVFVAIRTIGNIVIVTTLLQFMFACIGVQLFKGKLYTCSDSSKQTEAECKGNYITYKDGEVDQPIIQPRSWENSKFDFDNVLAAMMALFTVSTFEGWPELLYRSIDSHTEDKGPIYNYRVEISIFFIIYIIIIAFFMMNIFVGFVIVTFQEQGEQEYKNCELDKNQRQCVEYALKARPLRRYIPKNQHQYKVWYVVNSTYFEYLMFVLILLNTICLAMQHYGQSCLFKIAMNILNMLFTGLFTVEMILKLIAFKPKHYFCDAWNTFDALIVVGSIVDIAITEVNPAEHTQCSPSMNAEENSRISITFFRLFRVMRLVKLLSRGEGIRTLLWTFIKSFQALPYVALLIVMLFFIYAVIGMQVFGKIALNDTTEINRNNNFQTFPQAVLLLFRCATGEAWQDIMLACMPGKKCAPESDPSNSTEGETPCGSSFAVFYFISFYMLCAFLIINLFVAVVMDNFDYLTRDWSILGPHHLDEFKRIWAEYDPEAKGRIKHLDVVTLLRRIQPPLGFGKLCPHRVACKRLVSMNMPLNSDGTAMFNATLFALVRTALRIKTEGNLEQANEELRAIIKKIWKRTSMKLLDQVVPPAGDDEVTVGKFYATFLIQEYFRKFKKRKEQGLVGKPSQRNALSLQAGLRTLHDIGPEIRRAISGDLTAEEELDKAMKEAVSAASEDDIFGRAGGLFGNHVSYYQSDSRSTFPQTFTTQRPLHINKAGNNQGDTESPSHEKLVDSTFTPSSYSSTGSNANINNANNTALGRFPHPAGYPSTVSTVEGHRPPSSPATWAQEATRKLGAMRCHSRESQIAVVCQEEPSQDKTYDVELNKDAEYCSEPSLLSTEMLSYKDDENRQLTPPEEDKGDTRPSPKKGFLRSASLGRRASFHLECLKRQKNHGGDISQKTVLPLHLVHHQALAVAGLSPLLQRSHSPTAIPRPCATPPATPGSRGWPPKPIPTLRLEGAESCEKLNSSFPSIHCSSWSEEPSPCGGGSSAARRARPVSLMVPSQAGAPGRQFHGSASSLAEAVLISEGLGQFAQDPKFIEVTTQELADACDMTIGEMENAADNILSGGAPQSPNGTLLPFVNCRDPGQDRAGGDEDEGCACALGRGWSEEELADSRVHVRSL
Sequence of Voltage-gated inwardly rectifying potassium channel KCNH2 (Q12809 whole entry): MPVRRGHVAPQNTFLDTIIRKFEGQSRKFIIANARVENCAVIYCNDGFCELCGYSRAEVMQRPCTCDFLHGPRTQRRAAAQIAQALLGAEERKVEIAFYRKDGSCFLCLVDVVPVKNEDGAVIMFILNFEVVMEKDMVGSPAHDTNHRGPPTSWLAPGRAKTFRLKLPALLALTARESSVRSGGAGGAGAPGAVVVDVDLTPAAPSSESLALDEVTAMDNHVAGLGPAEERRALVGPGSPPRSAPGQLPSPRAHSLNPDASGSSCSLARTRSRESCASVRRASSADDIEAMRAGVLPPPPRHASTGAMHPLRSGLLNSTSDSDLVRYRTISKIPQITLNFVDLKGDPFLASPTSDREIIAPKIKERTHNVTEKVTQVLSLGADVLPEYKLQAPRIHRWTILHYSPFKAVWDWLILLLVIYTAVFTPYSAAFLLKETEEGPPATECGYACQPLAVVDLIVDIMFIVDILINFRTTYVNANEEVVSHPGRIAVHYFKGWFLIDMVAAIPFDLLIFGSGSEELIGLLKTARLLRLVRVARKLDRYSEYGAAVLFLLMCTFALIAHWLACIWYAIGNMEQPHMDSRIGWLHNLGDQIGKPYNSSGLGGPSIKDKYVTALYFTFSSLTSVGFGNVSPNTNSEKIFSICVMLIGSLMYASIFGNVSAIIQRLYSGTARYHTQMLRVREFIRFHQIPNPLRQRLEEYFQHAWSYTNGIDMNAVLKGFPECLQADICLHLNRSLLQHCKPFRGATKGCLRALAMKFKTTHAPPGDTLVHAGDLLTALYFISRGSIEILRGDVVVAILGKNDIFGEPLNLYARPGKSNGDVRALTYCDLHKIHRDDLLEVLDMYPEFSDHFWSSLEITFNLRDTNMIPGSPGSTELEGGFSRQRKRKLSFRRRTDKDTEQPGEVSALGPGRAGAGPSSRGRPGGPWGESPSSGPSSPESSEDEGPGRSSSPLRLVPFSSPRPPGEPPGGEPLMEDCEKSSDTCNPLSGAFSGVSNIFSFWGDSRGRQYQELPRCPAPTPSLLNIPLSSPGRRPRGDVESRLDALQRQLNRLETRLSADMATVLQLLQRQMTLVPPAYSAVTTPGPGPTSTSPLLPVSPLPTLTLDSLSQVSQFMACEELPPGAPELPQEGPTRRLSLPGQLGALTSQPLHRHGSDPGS

- clearance [2]: 25 mL/min/kg
- concentration (Plasma): 10 to 11 µM
- AUC/dose (Rattus norvegicus): 0.8 µg·h/mL/mg/kg
- bioavailability [3]: 100%
- IC50 [7]: 80 nM
- IC50 (Neuromedin-K receptor): 2500 nM
- Cmax [8]: 20 µM
- unbound plasma concentration (Canis familiaris [9]): 0.3 µM
- Cmax [10]: 7 µM
- unbound plasma concentration (Canis familiaris [12]): 0.94 µM
- inhibition [13]: inactive
- inhibition [14]: inactive
- IC50 (Substance-K receptor): 1300 nM
- IC50 [23]: 2.5 nM
Structure (SMILES): C[C@H](NC(=O)c1c(CN2CCC(N3CCCCC3)CC2)c(-c2cccc(C(F)(F)F)c2)nc2ccccc12)c1ccccc1
- IC30 [1]: 120 nM
- Activity (Canis familiaris [4]): Toxic
- Activity (Canis familiaris [5]): Toxic
- Activity [6]: Non-Toxic
- Activity (Mus musculus [11]): Toxic
- Activity (Aorta): Non-Toxic
- Activity (Mus musculus [15]): Toxic
- IC30 [16]: 1700 nM
- Activity [17]: Non-Toxic
- IC50 [18]: 4500 nM
- Activity (Canis familiaris [19]): Toxic
- Activity (Canis familiaris [20]): Toxic
- IC50 [21]: 1200 nM
- IC50 [22]: 40000 nM
- Activity (Canis familiaris [24]): Toxic
- Activity (Canis familiaris [25]): Non-Toxic

- IC50 [7]: 400 nM
- IC50 [23]: 16 nM
Structure (SMILES): C[C@H](NC(=O)c1c(CN2CCC(N3CCCCC3)CC2)c(-c2ccc(C(F)(F)F)cc2)nc2ccccc12)c1ccccc1

- IC50 [7]: 1000 nM
- IC50 [23]: 40 nM
Structure (SMILES): CC(C)(NC(=O)c1c(CN2CCC(N3CCCCC3)CC2)c(-c2cccc(C(F)(F)F)c2)nc2ccccc12)c1ccccc1

- IC50 [26]: 5900 nM
- IC50 [27]: 3200 nM
Structure (SMILES): CC(C)NCCN(C(C)C)S(=O)(=O)c1ccc(Cl)cc1Cl

- IC50 [7]: 500 nM
- IC50 [23]: 50 nM
Structure (SMILES): O=C(NCc1ccccc1)c1c(CN2CCC(N3CCCCC3)CC2)c(-c2cccc(C(F)(F)F)c2)nc2ccccc12

- IC50 [7]: 500 nM
- IC50 [23]: 13 nM
Structure (SMILES): Cc1cccc(-c2nc3ccccc3c(C(=O)N[C@@H](C)c3ccccc3)c2CN2CCC(N3CCCCC3)CC2)c1

- IC50 [7]: 100 nM
- IC50 [23]: 8 nM
Structure (SMILES): O=C(N[C@@H](c1ccccc1)C(F)(F)F)c1c(CN2CCC(N3CCCCC3)CC2)c(-c2cccc(C(F)(F)F)c2)nc2ccccc12

- IC50 [7]: 50 nM
- IC50 [23]: 4 nM
Structure (SMILES): COc1ccc2c(C(=O)N[C@H](c3ccccc3)C(F)(F)F)c(CN3CCC(N4CCCCC4)CC3)c(-c3cccc(C(F)(F)F)c3)nc2c1

- IC50 [7]: > 25000 nM
- IC50 [23]: > 25000 nM
Structure (SMILES): C[C@H](NC(=O)c1c(CN2CCCCC2)c(-c2cccc(C(F)(F)F)c2)nc2ccccc12)c1ccccc1

- IC50 [7]: 3160 nM
- IC50 [23]: 790 nM
Structure (SMILES): C[C@H](NC(=O)c1c(CN2CCC(N3CCNCC3)CC2)c(-c2cccc(C(F)(F)F)c2)nc2ccccc12)c1ccccc1

- IC50 [7]: 130 nM
- IC50 [23]: 25 nM
Structure (SMILES): CC(C)[C@H](NC(=O)c1c(CN2CCC(N3CCCCC3)CC2)c(-c2cccc(C(F)(F)F)c2)nc2ccccc12)c1ccccc1

- IC50 [7]: 2000 nM
- IC50 [23]: 400 nM
Structure (SMILES): C[C@@H](NC(=O)c1c(CN2CCC(N3CCCCC3)CC2)c(-c2cccc(C(F)(F)F)c2)nc2ccccc12)c1ccccc1

- IC50 [7]: 3980 nM
- IC50 [23]: 630 nM
Structure (SMILES): COc1cccc(-c2nc3ccccc3c(C(=O)N[C@@H](C)c3ccccc3)c2CN2CCC(N3CCCCC3)CC2)c1

- IC50 [7]: 80 nM
- IC50 [23]: 1.6 nM
Structure (SMILES): CCOc1ccc2c(C(=O)NC3(c4ccccc4)CC3)c(CN3CCC(N4CCCCC4)CC3)c(-c3cccc(C(F)(F)F)c3)nc2c1

- IC50 [7]: 200 nM
- IC50 [23]: 8 nM
Structure (SMILES): C[C@H](NC(=O)c1c(CN2CCC(N3CCCCC3)CC2)c(-c2cccc(Cl)c2)nc2ccccc12)c1ccccc1

- IC50 [7]: 320 nM
- IC50 [23]: 16 nM
Structure (SMILES): C[C@H](NC(=O)c1c(CN2CCC(N3CCCCC3)CC2)c(-c2ccc(Cl)cc2)nc2ccccc12)c1ccccc1

From ChEMBL document CHEMBL3994677, “Discovery of GSK2193874: An Orally Active, Potent, and Selective Blocker of Transient Receptor Potential Vanilloid 4” (ACS Med Chem Lett, 2017)
